Measured values published in publication PMC12655351, “Synthesis and Anticancer Activity Evaluation of New 5-((5-Nitrofuran-2-yl)allylidene)-2-thioxo-4-thiazolidinones” (Pharmaceuticals, 2025).

Tests used:
NCI-H23 = details: NCI-H23, 48 h
TK-10 = details: TK-10, 48 h
MALME-3M = test: NCI-60 SRB screen; details: 48 h; for GI50 / CC50: Homo sapiens, Malme-3M; for CC50: read-out: LC50, MALME-3M, 48 h; for TGI: MALME-3M
PC-3 [1] = test: cells; details: Homo sapiens, PC-3, 48 h
A498 = test: cells; details: Homo sapiens, A498, 48 h
NCI-H522 = test: NCI-60 SRB screen; details: for GI50 / CC50: Homo sapiens; for GI50 / CC50 / TGI: NCI-H522, 48 h; for CC50: read-out: LC50, NCI-H522, 48 h
MDA-MB-435 = test: cells; details: Homo sapiens, MDA-MB-435, 48 h; for CC50: read-out: LC50, MDA-MB-435, 48 h
KM12 = test: NCI-60 SRB screen; details: KM12, 48 h; for GI50: Homo sapiens
[2] = test system: Non-small cell lung cancer; details: Non-small cell lung cancer subpanel
BT-549 = test: cells; details: Homo sapiens, BT-549, 48 h; for CC50: read-out: LC50, BT-549, 48 h
SF-295 = test: NCI-60 SRB screen; details: SF-295, 48 h; for GI50 / CC50: Homo sapiens; for CC50: read-out: LC50, SF-295, 48 h
OVCAR-8 = details: OVCAR-8, 48 h
PC-3 [3] = details: PC-3, 48 h
CAKI-1 = details: for TGI: CAKI-1, 48 h
ACHN = test: NCI-60 SRB screen; details: 48 h; for GI50 / CC50: Homo sapiens; for CC50: read-out: LC50, ACHN, 48 h
SF-268 = test: cells; details: Homo sapiens, SF-268, 48 h; for CC50: read-out: LC50, SF-268, 48 h
K-562 = details: K-562, 48 h
SK-OV-3 = test: cells; details: Homo sapiens, SK-OV-3, 48 h; for CC50: read-out: LC50, SK-OV-3, 48 h
COLO 205 = test: cells; details: Homo sapiens, COLO 205, 48 h; for CC50: read-out: LC50, COLO 205, 48 h
HCC-2998 = test: cells; details: Homo sapiens, HCC 2998, 48 h
U251 = test: NCI-60 SRB screen; details: for GI50 / CC50: Homo sapiens, U-251, 48 h; for GI50 / TGI: U251, 48 h; for CC50: read-out: LC50, U251, 48 h
CNS cancer = CNS cancer subpanel
IGROV1 = test: NCI-60 SRB screen; details: for GI50 / CC50: Homo sapiens, IGROV-1, 48 h; for GI50 / TGI: IGROV1, 48 h; for CC50: read-out: LC50, IGROV1, 48 h

Compound: CC(C)C(C(=O)O)N1C(=O)/C(=C/C=C/c2ccc([N+](=O)[O-])o2)SC1=S (stereo not drawn) [5b, 3-Methyl-2-((Z)-5-((E)-3-(5-nitrofuran-2-yl)allylidene)-4-oxo-2-thioxothiazolidin-3-yl)butanoic acid]
- TGI (NCI-H23): 3.41 µM
- TGI (TK-10): 4.03 µM
- GI50 (MALME-3M): 1.32 µM
- CC50 (MALME-3M): 5.64 µM
- TGI (MALME-3M): 2.73 µM
- GI50 (PC-3 [1]): 1.8 µM
- GI50 (A498): 2.69 µM
- GI50 (NCI-H522): 1.12 µM
- CC50 (NCI-H522): 5.69 µM
- TGI (NCI-H522): 2.53 µM
- GI50 (MDA-MB-435): 0.85 µM
- CC50 (MDA-MB-435): 5.01 µM
- GI50 (KM12): 1.17 µM
- TGI (KM12): 2.57 µM
- MG_MID TGI [2]: 4.25 µM
- GI50 (BT-549): 0.75 µM
- CC50 (BT-549): 5.13 µM
- GI50 (SF-295): 1.83 µM
- CC50 (SF-295): 6.69 µM
- TGI (SF-295): 3.49 µM
- TGI (OVCAR-8): 4.78 µM
- TGI (PC-3 [3]): 6.52 µM
- growth GP (CAKI-1; CAKI-1, 10 μM, 48 h): -97.14%
- TGI (CAKI-1): 2.46 µM
- growth GP (ACHN; 10 μM): -99.54%
- TGI (ACHN): 2.64 µM
- GI50 (ACHN): 1.35 µM
- CC50 (ACHN): 5.19 µM
- GI50 (SF-268): 1.61 µM
- CC50 (SF-268): 7.92 µM
- TGI (K-562): 2.86 µM
- GI50 (SK-OV-3): 2.79 µM
- CC50 (SK-OV-3): 33.9 µM
- GI50 (COLO 205): 1.33 µM
- CC50 (COLO 205): 5.83 µM
- GI50 (HCC-2998): 1.72 µM
- GI50 (U251): 0.5 µM
- CC50 (U251): 4.64 µM
- TGI (U251): 1.79 µM
- MG_MID TGI (CNS cancer): 2.79 µM
- GI50 (IGROV1): 1.78 µM
- CC50 (IGROV1): 6.57 µM
- TGI (IGROV1): 3.42 µM

Compound: O=C(O)C(c1ccccc1)N1C(=O)/C(=C/C=C/c2ccc([N+](=O)[O-])o2)SC1=S (stereo not drawn) [9b, 2-((Z)-5-((E)-3-(5-Nitrofuran-2-yl)allylidene)-4-oxo-2-thioxothiazolidin-3-yl)-2-phenylacetic acid]
- TGI (NCI-H23): 31.0 µM
- TGI (TK-10): 30.0 µM
- GI50 (MALME-3M): 5.4 µM
- CC50 (MALME-3M): 48.8 µM
- TGI (MALME-3M): 18.7 µM
- GI50 (PC-3 [1]): 13.5 µM
- GI50 (A498): 20.8 µM
- GI50 (NCI-H522): 4.09 µM
- CC50 (NCI-H522): 64.6 µM
- growth GP (NCI-H522; NCI-H522, 10 μM, 48 h): -88.21%
- TGI (NCI-H522): 19.1 µM
- GI50 (MDA-MB-435): 3.04 µM
- CC50 (MDA-MB-435): 40.6 µM
- GI50 (KM12): 6.66 µM
- TGI (KM12): 20.6 µM
- MG_MID TGI [2]: 31.8 µM
- GI50 (BT-549): 2.46 µM
- CC50 (BT-549): 35.7 µM
- GI50 (SF-295): 17.4 µM
- CC50 (SF-295): 58.4 µM
- TGI (SF-295): 31.9 µM
- TGI (OVCAR-8): 25.5 µM
- TGI (PC-3 [3]): 29.9 µM
- TGI (CAKI-1): 19.7 µM
- TGI (ACHN): 21.4 µM
- GI50 (ACHN): 9.25 µM
- CC50 (ACHN): 47.2 µM
- GI50 (SF-268): 10.8 µM
- CC50 (SF-268): 52.2 µM
- TGI (K-562): 19.3 µM
- GI50 (SK-OV-3): 15.9 µM
- CC50 (SK-OV-3): 56.3 µM
- GI50 (COLO 205): 6.65 µM
- CC50 (COLO 205): 60.4 µM
- GI50 (HCC-2998): 15.6 µM
- GI50 (U251): 4.11 µM
- CC50 (U251): 49.8 µM
- TGI (U251): 16.5 µM
- MG_MID TGI (CNS cancer): 21.7 µM
- GI50 (IGROV1): 14.3 µM
- CC50 (IGROV1): 66.6 µM
- TGI (IGROV1): 30.8 µM

Compound: CCCC(C(=O)O)N1C(=O)/C(=C/C=C/c2ccc([N+](=O)[O-])o2)SC1=S (stereo not drawn) [4b, 2-((Z)-5-((E)-3-(5-Nitrofuran-2-yl)allylidene)-4-oxo-2-thioxothiazolidin-3-yl)pentanoic acid]
- TGI (NCI-H23): 4.11 µM
- TGI (TK-10): 8.16 µM
- GI50 (MALME-3M): 1.8 µM
- CC50 (MALME-3M): 6.4 µM
- TGI (MALME-3M): 3.40 µM
- GI50 (PC-3 [1]): 2.87 µM
- GI50 (A498): 2.24 µM
- GI50 (NCI-H522): 1.7 µM
- CC50 (NCI-H522): 6.48 µM
- TGI (NCI-H522): 3.32 µM
- GI50 (MDA-MB-435): 1.62 µM
- CC50 (MDA-MB-435): 6.77 µM
- GI50 (KM12): 1.38 µM
- TGI (KM12): 2.78 µM
- MG_MID TGI [2]: 6.56 µM
- GI50 (BT-549): 1.67 µM
- CC50 (BT-549): 6.77 µM
- GI50 (SF-295): 2.2 µM
- CC50 (SF-295): 25.7 µM
- TGI (SF-295): 6.76 µM
- TGI (OVCAR-8): 4.64 µM
- TGI (PC-3 [3]): 10.7 µM
- TGI (CAKI-1): 3.70 µM
- TGI (ACHN): 3.44 µM
- GI50 (ACHN): 1.72 µM
- CC50 (ACHN): 6.87 µM
- GI50 (SF-268): 2.04 µM
- CC50 (SF-268): 9.72 µM
- TGI (K-562): 14.5 µM
- GI50 (SK-OV-3): 5.8 µM
- CC50 (SK-OV-3): 47.2 µM
- GI50 (COLO 205): 1.95 µM
- CC50 (COLO 205): 6.66 µM
- GI50 (HCC-2998): 1.83 µM
- GI50 (U251): 1.69 µM
- CC50 (U251): 6.7 µM
- TGI (U251): 3.37 µM
- MG_MID TGI (CNS cancer): 4.46 µM
- GI50 (IGROV1): 1.94 µM
- CC50 (IGROV1): 7.75 µM
- TGI (IGROV1): 3.87 µM
